Measurements: patent publication US12686692B2, “KRas G12D inhibitors” (Mirati Therapeutics, Inc., priority 2020, dated 2026)

Legend:
[1] = biological target: T1, KRas G12D (Homo sapiens, UniProt P01116, G12D); assay: KRas G12D Surface Plasmon Resonance (SPR) Binding Assay; conditions: Biacore T200, biotinylated Avidin-tagged KRAS protein on SA chip, 20 C, 1:1 binding model
Experimental: This Example illustrates that exemplary compounds of the present invention bind to KRas G12D as measured by surface plasmon resonance (SPR). Briefly, 1 L of 1.05×HBS-Mg buffer (262.5 mM BioUltra Hepes, pH 7.5, 157.5 mM NaCl, 105 mM MgCl2, 0.525 mM TCEP, […] Brij-35) was prepared and filter sterilized using a 0.22 μm bottle top filter. Approximately 50 mL of 1.05×HBS-Mg buffer was removed and saved for future dilutions. A 50 mL aliquot of DMSO (Sigma Aldrich DMSO Lot. #SHBK2079) was added and continued to stir for 10 minutes, creating the final 1.0×HBS-Mg buffer (250 mM BioUltra Hepes pH 7.5, 150 mM NaCl, 100 mM MgCl2, 0.5 mM TCEP, 0.03% Brij-35). Biacore T200 instrument was primed using 1.0×HBS-Mg buffer before docking a GE Streptavidin (SA) chip and then primed two additional times prior to beginning the immobilization step. All immobilized protein mixtures were created using 3-5 mg/mL Biotinylated Avidin-tagged KRAS protein using the following immobilization settings: SA chip type, 1 flow cells per cycle, 720 second contact time, and 5 μL/min flow rate. Normalization of the detector was also performed during the immobilization step using the GE BiaNormalize solution. All compounds were diluted to 10 mM in 100% DMSO prior to being diluted 20× in 1.05× buffer. Another 10× dilution was created using 1.0× buffer prior to performing a series of 3× dilutions to create a compound concentration curve using the following assay settings: 20 C analysis temperature, General Settings=10 Hz data collection rate and multi-detection; Assay Steps=all set to LMW kinetics; Cycle Types=LMW kinetics (60s contact time, 120s dissociation time, 100 μL/min flow rate, extra wash after injection with 50% DMSO, flow path 1,2,3,4); Flow path detection=2-1, 4-3). Data evaluation was performed using the Biacore T200 Evaluation software and data fit to 1:1 binding model.
Target sequence in this assay (P01116 1-188 isoform P01116-2 G12D): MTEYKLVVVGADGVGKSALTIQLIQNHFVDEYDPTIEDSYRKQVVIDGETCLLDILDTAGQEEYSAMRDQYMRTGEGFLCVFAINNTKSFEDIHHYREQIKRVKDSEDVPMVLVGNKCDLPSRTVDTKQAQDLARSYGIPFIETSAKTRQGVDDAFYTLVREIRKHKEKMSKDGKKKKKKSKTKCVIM

[2] = biological target: T1, KRas G12D; assay: KRas G12D Binding Assay (TR-FRET displacement of labeled tracer); design: corresponding to amino acids 1:169, produced at Array BioPharma; biotin (protein is biotinylated); conditions: TR-FRET displacement of Cy5 labelled tracer, biotinylated GDP-loaded KRAS G12D (aa 1:169), 60 minute incubation at 22° C.
Summary of the method: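 Biotinylated GDP-loaded human KRAS G12D (aa 1–169) incubated with Cy5 tracer, Eu-streptavidin and compound (2% DMSO final) in 50 mM HEPES pH 7.5, 5 mM MgCl2, 0.005% Tween-20, 1 mM DTT, 60 min at 22 °C. TR-FRET ratio converted to percent of control; IC50 at 50 POC from 4-parameter logistic fit.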
Target sequence in this assay (P01116 1-169 isoform P01116-2 G12D): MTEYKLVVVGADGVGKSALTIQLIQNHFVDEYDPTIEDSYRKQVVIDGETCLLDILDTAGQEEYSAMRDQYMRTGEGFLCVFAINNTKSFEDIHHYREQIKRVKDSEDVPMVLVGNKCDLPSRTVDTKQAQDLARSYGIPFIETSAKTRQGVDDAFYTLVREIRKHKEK

[3] = test system: KRas G12D-mediated Phosphorylation of ERK; assay: Inhibition of KRas G12D-mediated Phosphorylation of ERK in AGS cells; type: cell-based; conditions: Homo sapiens; AGS cells expressing G12D, 3 hours, phospho-ERK normalized to GAPDH
Experimental: AGS cells (ATCC CRL-1739) expressing G12D were grown in DMEM medium supplemented with 10% fetal bovine serum, 10 mM HEPES, and Penicillin/Streptomycin. Cells were plated in tissue culture treated 96 well plates at a density of 40,000 cells/well and allowed to attach for 12-14 hours. Diluted compounds were then added in a final concentration of 0.5% DMSO. After 3 hours, the medium was removed, 150 μl of 4.0% formaldehyde was added and the plates incubated at room temperature for 20 minutes. The plates were washed with PBS, and permeabilized with 150 μL of ice cold 100% methanol for 10 minutes. Non-specific antibody binding to the plates was blocked using 100 μL Licor blocking buffer (Li-Cor Biotechnology, Lincoln NE) for 1 hour at room temperature.
The amount of phospho-ERK was determined using an antibody specific for the phosphorylated form of ERK and compared to the amount of GAPDH. Primary antibodies used for the detection were added as follows: Phospho-ERK(Cell Signaling cs-9101) diluted 1:500 and GAPDH(Millipore MAB374) diluted 1:5000 in Licor block+0.05% Tween 20. The plates were incubated for 2 hours at room temperature. The plates were washed with PBS+0.05% Tween 20.
Secondary antibodies used to visualize primary antibodies were added as follows: Anti-rabbit-680 diluted 1:1000 and Anti-mouse-800 diluted 1:1000 both in Licor block+0.05% Tween20, and were incubated for 1 hour at room temperature. The plates were washed with PBS+0.05% Tween 20. A 100 μl aliquot of PBS was added to each well and the plates were read on a Li-Cor Odyssey CLX plate reader.
The phospho-ERK(Thr202/Tyr204 signal was normalized to the GAPDH signal for each well and percent of DMSO control values were calculated. IC50 values were generated using a 4-parameter fit of the dose response curve.

Kd [1] [nM] | Structure (SMILES) | IC50 [2] [nM] | IC50 [3] [nM]
1510 | CN1CCC[C@H]1COc1nc2c(c(N3C[C@H]4CC[C@@H](C3)N4)n1)CCN(c1cccc3c1C(CC#N)CCC3)C2 (stereo partly drawn) [Example 85, 2-(8-(4-((1R,5S)-3,8-diazabicyclo[3.2.1]octan-3-yl)-2-(((S)-1-methylpyrrolidin-2-yl)methoxy)-5,8-dihydropyrido[3,4-d]pyrimidin-7(6H)-yl)-1,2,3,4-tetrahydronaphthalen-1-yl)acetonitrile] | – | –
8710 | CN1CCC[C@H]1COc1nc2c(c(N3C[C@H]4CC[C@@H](C3)N4)n1)CCN(c1cccc3cccc(CCCCO)c13)C2 [Example 84, 4-(8-(4-((1R,5S)-3,8-diazabicyclo[3.2.1]octan-3-yl)-2-(((S)-1-methylpyrrolidin-2-yl)methoxy)-5,8-dihydropyrido[3,4-d]pyrimidin-7(6H)-yl)naphthalen-1-yl)butan-1-ol] | 3690 | –
3160 | CN1CCC[C@H]1COc1nc2c(c(N3C[C@H]4CC[C@@H](C3)N4)n1)CCN(c1cccc3cccc(F)c13)C2 [Example 73, 4-((1R,5S)-3,8-diazabicyclo[3.2.1]octan-3-yl)-7-(8-fluoronaphthalen-1-yl)-2-(((S)-1-methylpyrrolidin-2-yl)methoxy)-5,6,7,8-tetrahydropyrido[3,4-d]pyrimidine] | 1100 | –
1400 | CN1CCC[C@H]1COc1nc2c(c(N3C[C@@H]4C[C@H](CO)[C@H](C3)N4)n1)CCN(c1cc(O)cc3ccccc13)C2 [Example 120, 4-(4-((1S,5R,6S)-6-(hydroxymethyl)-3,8-diazabicyclo[3.2.1]octan-3-yl)-2-(((S)-1-methylpyrrolidin-2-yl)methoxy)-5,8-dihydropyrido[3,4-d]pyrimidin-7(6H)-yl)naphthalen-2-ol] | – | –
– | CCc1cccc2cccc(N3CCc4c(nc(OC[C@]56CCCN5[C@@H](COC(=O)N5CCOCC5)CC6)nc4N4C[C@H]5CC[C@@H](C4)N5)C3)c12 [Example 97, ((3R,7aR)-7a-(((4-((1R,5S)-3,8-diazabicyclo[3.2.1]octan-3-yl)-7-(8-ethylnaphthalen-1-yl)-5,6,7,8-tetrahydropyrido[3,4-d]pyrimidin-2-yl)oxy)methyl)hexahydro-1H-pyrrolizin-3-yl)methyl morpholine-4-carboxylate] | 1.2 | 187
– | CCc1cccc2cccc(N3CCc4c(nc(OCC56CCCN5C(COC(=O)N5CC[C@@H](OC)C5)CC6)nc4N4C[C@H]5CC[C@@H](C4)N5)C3)c12 (stereo partly drawn) [Example 106, (7a-(((4-((1R,5S)-3,8-diazabicyclo[3.2.1]octan-3-yl)-7-(8-ethylnaphthalen-1-yl)-5,6,7,8-tetrahydropyrido[3,4-d]pyrimidin-2-yl)oxy)methyl)hexahydro-1H-pyrrolizin-3-yl)methyl (3R)-3-methoxypyrrolidine-1-carboxylate] | 7.2 | 5110
– | CNC(=O)OC[C@H]1CCC2(COc3nc4c(c(N5CC6CCC(C5)N6)n3)CCN(c3cccc5cccc(F)c35)C4)CCCN12 (stereo partly drawn) [Example 34, (7a-(((4-((1R,5S)-3,8-diazabicyclo[3.2.1]octan-3-yl)-7-(8-fluoronaphthalen-1-yl)-5,6,7,8-tetrahydropyrido[3,4-d]pyrimidin-2-yl)oxy)methyl)hexahydro-1H-pyrrolizin-3-yl)methyl methylcarbamate (trans enantiomers)] | 111 | 3910
– | CN1CCC[C@H]1COc1nc2c(c(N3C[C@H]4C[C@H](O)[C@@H](C3)N4)n1)CCN(c1cccc3cccc(Cl)c13)C2 [Example 96, (1R,5R,6S)-3-(7-(8-chloronaphthalen-1-yl)-2-(((S)-1-methylpyrrolidin-2-yl)methoxy)-5,6,7,8-tetrahydropyrido[3,4-d]pyrimidin-4-yl)-3,8-diazabicyclo[3.2.1]octan-6-ol] | 331 | > 16700
– | Oc1cc(N2CCc3c(nc(OCC45CCCN4CCC5)nc3N3C[C@H]4CC[C@@H](C3)N4)C2)c2c(Cl)cccc2c1 [Example 115, 4-(4-((1R,5S)-3,8-diazabicyclo[3.2.1]octan-3-yl)-2-((hexahydro-1H-pyrrolizin-7a-yl)methoxy)-5,6-dihydropyrido[3,4-d]pyrimidin-7(8H)-yl)-5-chloronaphthalen-2-ol] | 0.6 | 118
– | F[C@H]1CN2CCCC2(COc2nc3c(c(N4CC5CCC(C4)N5)n2)CCN(c2cccc(Cl)c2C(F)(F)F)C3)C1 (mixture of isomers) [Example 48, 4-((1R,5S)-3,8-diazabicyclo[3.2.1]octan-3-yl)-7-(3-chloro-2-(trifluoromethyl)phenyl)-2-((2-fluorotetrahydro-1H-pyrrolizin-7a(5H)-yl)methoxy)-5,6,7,8-tetrahydropyrido[3,4-d]pyrimidine] | 5.5 | 5220
– | Oc1cc(N2CCc3c(nc(OCC45CCCN4C[C@H](F)C5)nc3N3CC4CCC(C3)N4)C2)c2ccccc2c1 (mixture of isomers) [Example 47, 4-(4-((1R,5S)-3,8-diazabicyclo[3.2.1]octan-3-yl)-2-((2-fluorotetrahydro-1H-pyrrolizin-7a(5H)-yl)methoxy)-5,8-dihydropyrido[3,4-d]pyrimidin-7(6H)-yl)naphthalen-2-ol] | 1 | 537
– | CCc1cccc2cc(O)cc(N3CCc4c(nc(OCC56CCCN5CCC6)nc4N4C[C@H]5CC[C@@H](C4)N5)C3)c12 [Example 14, 4-(4-((1R,5S)-3,8-diazabicyclo[3.2.1]octan-3-yl)-2-((tetrahydro-1H-pyrrolizin-7a(5H)-yl)methoxy)-5,8-dihydropyrido[3,4-d]pyrimidin-7(6H)-yl)-5-ethylnaphthalen-2-ol] | 1.1 | 21
– | CCc1cccc2cccc(N3CCc4c(nc(OCC56CCCN5[C@@H](COC(=O)NC)CC6)nc4N4CC5CCC(C4)N5)C3)c12 (stereo partly drawn) [Example 5, (7a-(((4-((1R,5S)-3,8-diazabicyclo[3.2.1]octan-3-yl)-7-(8-ethylnaphthalen-1-yl)-5,6,7,8-tetrahydropyrido[3,4-d]pyrimidin-2-yl)oxy)methyl)hexahydro-1H-pyrrolizin-3-yl)methyl methylcarbamate (trans enantiomers)] | 1.6 | 142
– | CCc1cccc2cccc(N3CCc4c(nc(OC[C@]56CCCN5[C@@H](COC(=O)N5CCCC5)CC6)nc4N4C[C@H]5CC[C@@H](C4)N5)C3)c12 [Example 99, ((3R,7aR)-7a-(((4-((1R,5S)-3,8-diazabicyclo[3.2.1]octan-3-yl)-7-(8-ethylnaphthalen-1-yl)-5,6,7,8-tetrahydropyrido[3,4-d]pyrimidin-2-yl)oxy)methyl)hexahydro-1H-pyrrolizin-3-yl)methyl pyrrolidine-1-carboxylate] | 2.7 | 559
